# Patent US8288444B2 (Codman & Shurtleff, Inc., priority 2008, dated 2012)
# Read-outs that look alike come from different tables or passages of the source.
# Tests used:
# [1] = glycinate ester of the parent named in the row; cited from earlier work
# [2] = ester prodrug vs parent estradiol
# [3] = cited from earlier work
# [4] = cited from earlier work; remark: listed apart in the source
# [5] = carbamazepine peak brain tissue concentration by route (Barakat)
# [6] = tested on: PC 12 cells, βA (25-35); test: in vitro protection of PC 12 cells against beta amyloid (25-35) insult; type: cell-based; conditions: for potency as neuroprotectant against beta amyloid relative to curcumin: both peptides
# Excerpt: Park, J. Nat. Prod., 65, 9 Sep.
# [7] = target: amyloid beta oligomers (Homo sapiens, UniProt P05067); conditions: cited from earlier work; for prevention of toxic beta amyloid oligomer formation in vitro: Yang
# [8] = tested on: differentiated neuroblastoma cells; conditions: Yang 2005; cited from earlier work
# [9] = tested on: Alzheimer's Transgenic mice; conditions: 160 ppm in the diet; Lim 2001; cited from earlier work
# [10] = tested on: middle aged female Sprague-Dawley rats; conditions: 500 ppm dietary curcumin; Frautschy 2001; cited from earlier work
# [11] = tested on: UGT; conditions: Caco-2 cells; cited from earlier work
# [12] = tested on: Pgp; conditions: freshly-plated and 72 hour-cultured hepatocytes; dose-dependent; cited from earlier work
# [13] = tested on: antigen-stimulated spleen cytotoxic T-lymphocyte proliferation; conditions: oral pretreatment with curcumin before MPA administration; mice; cited from earlier work
# Chain of amyloid beta oligomers (P05067 672-713 limits assumed): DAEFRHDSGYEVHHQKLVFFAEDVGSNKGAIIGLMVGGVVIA
compound,measurement,setting,value
17β-estradiol,Half-life Of glycinate ester In plasma,[1],1 to 2 min
"CCN(CC)CCC(=O)Oc1ccc2c(c1)CC[C@@H]1[C@@H]2CC[C@]2(C)[C@@H](O)CC[C@@H]12.Cl [3-DEAPE2HCl, 3-N,N-diethylamino propionyl ester hydrochloride]",increase in water solubility,[2],> 1000 fold
same,water solubility of estradiol modified with the moiety,[3]; Al-Ghananeem,about 20 mg/ml
NC(=O)N1c2ccccc2C=Cc2ccccc21 [Carbamazepine],Carbamazepine Peak Brain Tissue,"[4]; Intranasal, 0.2 mg/kg",12 µg/g
same,Carbamazepine Peak Brain Tissue,"[4]; Intravenous, 8.0 mg/kg",4 µg/g
same,Carbamazepine Peak Brain Tissue,"[4]; Oral, 16 mg/kg",3 µg/g
same,"Carbamazepine Peak Brain Tissue, ~uM","[5]; Intranasal, 0.2 mg/kg",~48 µM
same,"Carbamazepine Peak Brain Tissue, ~uM","[5]; Intravenous, 8.0 mg/kg",~16 µM
same,"Carbamazepine Peak Brain Tissue, ~uM","[5]; Oral, 16 mg/kg",~12 µM
"COc1cc(/C=C/C(=O)COC(=O)/C=C/c2ccc(O)c(OC)c2)ccc1O [compound 31, 4″-(3′″-methoxy-4′″-hydroxyphenyl)-2″-oxo-3″-enebutanyl3-(3′-methoxy-4′ hydroxyphenyl) propenoate]",potency as neuroprotectant against beta amyloid relative to curcumin,[6]; analysis of the Park data,~5 fold
"COc1cc(C=CC(=O)CC(=O)C=Cc2ccc(O)cc2)ccc1O [compound 32, 1-(4-hydroxy-3-methoxyphenyl)-7-(4-hydroxyphenyl)-1,6-heptadiene-3,5-dione]",potency as neuroprotectant against beta amyloid relative to curcumin,[6]; analysis of the Kim data,~1.5 fold
"O=C(C=Cc1ccc(O)cc1)CC(=O)C=Cc1ccc(O)cc1 [compound 33, 1,7-bis(4-hydroxyphenyl)-1,6-heptadiene-3,5-dione]",potency relative to natural curcumin in surviving toxic insult by β amyloid,[6],about twice as potent
same,potency as neuroprotectant against beta amyloid relative to curcumin,[6]; analysis of the Kim data,~2 fold
"O=C(C=Cc1ccc(O)cc1)CC(=O)CCc1ccc(O)cc1 [compound 34, 1,7-bis(4-hydroxyphenyl)-1-heptene-3,5-dione]",potency as neuroprotectant against beta amyloid relative to curcumin,[6]; analysis of the Park data,~10 fold
"COc1cc(/C=C/C(=O)CC(=O)/C=C/c2ccc(O)c(OC)c2)ccc1O [curcumin, (E,E)-1,7-bis(4-hydroxy-3-methoxyphenyl)-1,6-heptadiene-3,5-dione]",prevention of toxic beta amyloid oligomer formation in vitro,[7]; 0.25-4 uM curcumin,only minimally prevent
same,prevention of toxic beta amyloid oligomer formation in vitro,[7]; 16-64 uM curcumin,completely prevent
same,curcumin concentration that inhibits the in vitro formation of amyloid beta oligomers,"[7]; in vitro, Yang 2005",0.1 to 1.0 µM
same,curcumin concentration that blocks the in vitro toxicity of Aβ1-42 oligomers,[8],0.1 to 1.0 µM
same,reduction of beta amyloid plaque burden,[9],30-40%
same,reduction of the amount of soluble beta amyloid,[9],43%
same,reduction of amyloid beta deposits induced by beta amyloid infusion,[10],about 80%
same,solubility in water,[3],insoluble in water
same,solubility in water (parent compound),[3],about 0.004 mg/ml
same,inhibition of UGT activity in the conjugation of 1-naphthol,[11],moderate inhibition
same,Rhodamine-123 (R-123) efflux,[12],inhibited
same,increase in immunosuppression of antigen-stimulated spleen cytotoxic T-lymphocyte proliferation,[13],six-fold increase
